Where two headings read alike, the source gives them in different places.
Legend:
[1] = system: Beet Armyworm (Spodoptera exigua, LAPHEG); assay: Bioassays on Beet Armyworm (BAW), 128-well diet tray assay; type: in vivo; conditions: Spodoptera exigua
Outline: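 Second-instar larvae, one to five per well, were placed on artificial diet surface-treated with 50 μg/cm^2 compound in 90:10 acetone-water, eight wells per treatment. Trays were held 5–7 days at 25 °C, 14:10 light-dark. Percent mortality per well was averaged over eight wells.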

[2] = system: Cabbage Looper (Trichoplusia ni, TRIPNI); assay: Bioassays on Cabbage Looper (CL), 128-well diet tray assay; type: in vivo; conditions: Trichoplusia ni
Outline: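 One to five second-instar larvae per well on artificial diet surface-treated with 50 μg/cm^2 test molecule (applied in 90:10 acetone-water, dried). Held 5–7 days at 25° C, 14:10 light-dark; percent mortality recorded per well and averaged over eight wells.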

[3] = Beet Armyworm, rating class, read-out: BAW
[4] = Cabbage Looper, rating class, read-out: CL
[5] = Beet Armyworm, Table ABC / ABC-DP rating, read-out: BAW rating
[6] = Cabbage Looper, Table ABC / ABC-DP rating, read-out: CL rating
[7] = Table ABC: Biological Results, species BAW, read-out: BAW
[8] = Table ABC: Biological Results, species CL, read-out: CL

## COC(=O)C(=O)Nc1c(F)ccc(NC(=O)c2cc(NC(=O)[C@H]3[C@H](c4ccc(F)c(C(F)(F)F)c4)C3(Cl)Cl)ccc2Cl)c1F [F1753, Methyl 2-((3-(2-chloro-5-((1R,3R)-2,2-dichloro-3-(4-fluoro-3-(trifluoromethyl)phenyl)cyclopropane-1-carboxamido)benzamido)-2,6-difluorophenyl)amino)-2-oxoacetate]
[1]; [3]
  pest or weed control at 50 µg/cm2: 50 to 100%
[2]; [4]
  pest or weed control at 50 µg/cm2: 50 to 100%

## Cc1cc(NC(=O)[C@H]2[C@H](c3ccc(Cl)c(Cl)c3)C2(Cl)Cl)cc(C(=O)Nc2cc(NC(=O)C(F)F)c(F)cc2F)c1Cl [F1496, 2-Chloro-5-((1R,3R)-2,2-dichloro-3-(3,4-dichlorophenyl)cyclopropane-1-carboxamido)-N-(5-(2,2-difluoroacetamido)-2,4-difluorophenyl)-3-methylbenzamide]
[1]; [3]
  pest or weed control at 50 µg/cm2: 50 to 100%
[2]; [4]
  pest or weed control at 50 µg/cm2: 50 to 100%

## O=C(Nc1ccc(F)c(NC(=O)C(F)(F)C(F)F)c1F)c1cc(NC(=O)[C@H]2[C@H](c3cccc(C(F)(F)F)c3)C2(Cl)Cl)ccc1Cl [F1677, 2-Chloro-5-((1R,3R)-2,2-dichloro-3-(3-(trifluoromethyl)phenyl)cyclopropane-1-carboxamido)-N-(2,4-difluoro-3-(2,2,3,3-tetrafluoropropanamido)phenyl)benzamide]
[1]; [3]
  pest or weed control at 50 µg/cm2: 50 to 100%
[2]; [4]
  pest or weed control at 50 µg/cm2: 50 to 100%

## CN(NC(=O)c1cc(NC(=O)[C@H]2[C@H](c3cc(Cl)cc(Cl)c3)C2(Cl)Cl)ccc1Cl)C(=O)C(F)(F)F (relative stereo) [F2523, trans-2,2-Dichloro-N-(4-chloro-3-(2-methyl-2-(2,2,2-trifluoroacetyl)hydrazine-1-carbonyl)phenyl)-3-(3,5-dichlorophenyl)cyclopropane-1-carboxamide]
[1]; [5]
  pest or weed control at 50 µg/cm2: 50 to 100%
[2]; [6]
  pest or weed control at 50 µg/cm2: 50 to 100%

## Nc1cc(F)c(NC(=O)c2cc(NC(=O)[C@H]3[C@H](c4ccc(Cl)c(Cl)c4)C3(Cl)Cl)ccc2Cl)c(F)c1 [F1028, N-(4-Amino-2,6-difluorophenyl)-2-chloro-5-((1R,3R)-2,2-dichloro-3-(3,4-dichlorophenyl)cyclopropane-1-carboxamido)benzamide]
[1]; [7]
  pest or weed control at 50 µg/cm2: 50 to 100%
[2]; [8]
  pest or weed control at 50 µg/cm2: 50 to 100%

## O=C(Nc1c(F)ccc(NC(=O)c2cc(NC(=O)[C@H]3[C@H](c4ccc(F)c(C(F)(F)F)c4)C3(Cl)Cl)ccc2Cl)c1F)c1ccno1 [F1816, N-(3-(2-Chloro-5-((1R,3R)-2,2-dichloro-3-(4-fluoro-3-(trifluoromethyl)phenyl)cyclopropane-1-carboxamido)benzamido)-2,6-difluorophenyl)isoxazole-5-carboxamide]
[1]; [5]
  pest or weed control at 50 µg/cm2: 50 to 100%
[2]; [6]
  pest or weed control at 50 µg/cm2: 50 to 100%

## O=C(Nc1c(F)ccc(NC(=O)C(F)(F)F)c1F)c1cc(NC(=O)[C@H]2[C@H](c3ccc(Cl)c(Cl)c3)C2(Cl)Cl)cc(F)c1Cl [F1344, 2-Chloro-5-((1R,3R)-2,2-dichloro-3-(3,4-dichlorophenyl)cyclopropane-1-carboxamido)-N-(2,6-difluoro-3-(2,2,2-trifluoroacetamido)phenyl)-3-fluorobenzamide]
[1]; [7]
  pest or weed control at 50 µg/cm2: 50 to 100%
[2]; [8]
  pest or weed control at 50 µg/cm2: 50 to 100%

## CC(=O)Nc1c(F)cc(NC(=O)c2cc(NC(=O)[C@H]3[C@H](c4ccc(Cl)c(Cl)c4)C3(Cl)Cl)ccc2Cl)cc1F (relative stereo) [F1124, trans-N-(4-Acetamido-3,5-difluorophenyl)-2-chloro-5-(2,2-dichloro-3-(3,4-dichlorophenyl)cyclopropane-1-carboxamido)benzamide]
[1]; [7]
  pest or weed control at 50 µg/cm2: 50 to 100%
[2]; [8]
  pest or weed control at 50 µg/cm2: 50 to 100%

## CC(=O)Nc1c(F)ccc(NC(=O)c2cc(NC(=O)[C@H]3[C@H](c4ccc(Cl)c(Cl)c4)C3(Cl)Cl)ccc2Cl)c1F [F1083, N-(3-acetamido-2,4-difluorophenyl)-2-chloro-5-((1R,3R)-2,2-dichloro-3-(3,4-dichlorophenyl)cyclopropane-1-carboxamido)benzamide]
[1]; [7]
  pest or weed control at 50 µg/cm2: 50 to 100%
[2]; [8]
  pest or weed control at 50 µg/cm2: 50 to 100%

## O=C(Nc1ccc(F)c(NC(=O)C2(C(F)(F)F)CC2)c1F)c1cc(NC(=O)[C@H]2[C@H](c3ccc(Cl)c(Cl)c3)C2(Cl)Cl)ccc1Cl [F1662, 2-Chloro-5-((1R,3R)-2,2-dichloro-3-(3,4-dichlorophenyl)cyclopropane-1-carboxamido)-N-(2,4-difluoro-3-(1-(trifluoromethyl)cyclopropane-1-carboxamido)phenyl)benzamide]
[1]; [3]
  pest or weed control at 50 µg/cm2: 50 to 100%
[2]; [4]
  pest or weed control at 50 µg/cm2: 50 to 100%

## O=C(Nc1c(F)ccc(NC(=O)c2cc(NC(=O)[C@H]3[C@H](c4ccc(Cl)c(Cl)c4)C3(Cl)Cl)ccc2Cl)c1F)c1ccns1 [F1672]
[1]; [3]
  pest or weed control at 50 µg/cm2: 50 to 100%
[2]; [4]
  pest or weed control at 50 µg/cm2: 50 to 100%

## O=C(Nc1ccc(F)c(NC(=O)C2CCOC2C(F)(F)F)c1F)c1cc(NC(=O)[C@H]2[C@H](c3ccc(F)c(C(F)(F)F)c3)C2(Cl)Cl)ccc1Cl (stereo partly drawn) [F1837, N-(3-(2-Chloro-5-((1R,3R)-2,2-dichloro-3-(4-fluoro-3-(trifluoromethyl)phenyl)cyclopropane-1-carboxamido)benzamido)-2,6-difluorophenyl)-2-(trifluoromethyl)tetrahydrofuran-3-carboxamide]
[1]; [5]
  pest or weed control at 50 µg/cm2: 50 to 100%
[2]; [6]
  pest or weed control at 50 µg/cm2: 50 to 100%

## O=C(NNc1ccccc1)c1cc(NC(=O)[C@H]2[C@H](c3cc(Cl)cc(Cl)c3)C2(Cl)Cl)ccc1Cl (relative stereo) [F2556, trans-2,2-Dichloro-N-(4-chloro-3-(2-phenylhydrazine-1-carbonyl)phenyl)-3-(3,5-dichlorophenyl)cyclopropane-1-carboxamide]
[1]; [5]
  pest or weed control at 50 µg/cm2: 50 to 100%
[2]; [6]
  pest or weed control at 50 µg/cm2: 50 to 100%

## CC(=O)Nc1ccc(F)c(NC(=O)c2cc(NC(=O)[C@H]3[C@H](c4ccc(Cl)c(Cl)c4)C3(Cl)Cl)cc(F)c2F)c1F [F1575, N-(3-Acetamido-2,6-difluorophenyl)-5-((1R,3R)-2,2-dichloro-3-(3,4-dichlorophenyl)cyclopropane-1-carboxamido)-2,3-difluorobenzamide]
[1]; [3]
  pest or weed control at 50 µg/cm2: 50 to 100%
[2]; [4]
  pest or weed control at 50 µg/cm2: 50 to 100%

## Nc1c(F)ccc(NC(=O)c2cc(NC(=O)[C@H]3[C@H](c4cc(F)cc(Br)c4F)C3(Cl)Cl)ccc2Cl)c1F (relative stereo) [F1098, trans-N-(3-Amino-2,4-difluorophenyl)-5-(3-(3-bromo-2,5-difluorophenyl)-2,2-dichlorocyclopropane-1-carboxamido)-2-chlorobenzamide]
[1]; [7]
  pest or weed control at 50 µg/cm2: 50 to 100%
[2]; [8]
  pest or weed control at 50 µg/cm2: 50 to 100%

## O=C(Nc1c(F)cc(F)cc1F)c1cc(NC(=O)[C@H]2[C@H](c3cc(Cl)cc(Cl)c3)C2(Cl)Cl)ccc1Cl (single isomer, unassigned) [F1377]
[1]; [7]
  pest or weed control at 50 µg/cm2: 50 to 100%
[2]; [8]
  pest or weed control at 50 µg/cm2: 50 to 100%

## Cc1cc(NC(=O)[C@H]2[C@H](c3cc(Cl)c(Cl)c(Cl)c3)C2(Cl)Cl)cc(C(=O)Nc2c(F)ccc(NC(=O)C(F)F)c2F)c1Cl [F1431, 2-Chloro-5-((1R,3R)-2,2-dichloro-3-(3,4,5-trichlorophenyl)cyclopropane-1-carboxamido)-N-(3-(2,2-difluoroacetamido)-2,6-difluorophenyl)-3-methylbenzamide]
[1]; [3]
  pest or weed control at 50 µg/cm2: 50 to 100%
[2]; [4]
  pest or weed control at 50 µg/cm2: 50 to 100%
